Where two headings read alike, the source gives them in different places.
Experiments:
Type in all cases: in vivo
[1] = tested on: Cabbage Looper (Trichoplusia ni) ("CL"), second instar larvae; experiment: Bioassay on cabbage looper (CL), 128-well diet tray assay; conditions: Trichoplusia ni
Procedure, shortened: (§1)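 Second-instar larvae on diet in 128-well trays, covered and held at 25° C, 14:10 light-dark, for five to seven days. Percent mortality scored per well and averaged over eight wells; activity reported as a rating category.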

[2] = tested on: Beet Armyworm (Spodoptera exigua) ("BAW"), second instar larvae; experiment: Bioassay on beet armyworm (BAW), 128-well diet tray assay; conditions: Spodoptera exigua
Procedure, shortened: as §1

[3] = tested on: Yellow Fever Mosquito "YFM" (Aedes aegypti), about 1 day-old larvae; experiment: Bioassay on yellow fever mosquito (YFM), 96-well plate larval assay; conditions: for YFM rating: Table ABC, species YFM, mortality scored after 3 days, C = not tested, D = no activity noticed; for YFM (Biological Results, rating): Yellow Fever Mosquito (Aedes aegypti) larvae, scored on mortality after 3 days, C = Not Tested
Protocol: Example C: Bioassays on Yellow Fever Mosquito “YFM” (Aedes aegypti)
Certain molecules disclosed in this document were tested against YFM using procedures described in the following paragraph. In the reporting of the results, the “YFM Rating Table” was used (See Table Section).
Master plates containing 400 μg of a molecule dissolved in 100 μL of dimethyl sulfoxide (DMSO) (equivalent to a 4000 ppm solution) are used. A master plate of assembled molecules contains 15 μL per well. To this plate, 135 μL of a 90:10 water:acetone mixture is added to each well. A robot (Biomek® NXP Laboratory Automation Workstation) is programmed to dispense 15 μL aspirations from the master plate into an empty 96-well shallow plate (“daughter” plate). There are 6 reps (“daughter” plates) created per master. The created daughter plates are then immediately infested with YFM larvae.
The day before plates are to be treated, mosquito eggs are placed in Millipore water containing liver powder to begin hatching (4 g. into 400 mL). After the daughter plates are created using the robot, they are infested with 220 μL of the liver powder/larval mosquito mixture (about 1 day-old larvae). After plates are infested with mosquito larvae, a non-evaporative lid is used to cover the plate to reduce drying. Plates are held at room temperature for 3 days prior to grading. After 3 days, each well is observed and scored based on mortality.

[4] = tested on: Green Peach Aphid ("GPA") (Myzus persicae), wingless adult and nymph stages; experiment: Bioassay on green peach aphid (GPA), foliar spray on infested cabbage seedlings; conditions: Myzus persicae, foliar, 72 h
Procedure, shortened: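 Values are corrected % control, 100*(X−Y)/X, from live aphid counts per plant under a microscope, treated versus solvent-check plants. Four infested seedlings (20-50 GPA each) per treatment were sprayed to runoff and kept three days near 25° C at ambient RH.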

[5] = read-out: CL (Biological Results, rating)
[6] = read-out: BAW (Biological Results, rating)
[7] = read-out: GPA (Biological Results, rating)

| Compound | pest or weed control at 50 µg/cm2 ([1]; read-out: CL rating) | pest or weed control at 50 µg/cm2 ([2]; read-out: BAW rating) | YFM rating [3] | pest or weed control at 200 µg/mL ([4]; read-out: GPA rating) | pest or weed control at 50 µg/cm2 [1, 5] | pest or weed control at 50 µg/cm2 [2, 6] | pest or weed control at 200 µg/mL [4, 7] | YFM (Biological Results, rating) [3] |
| --- | --- | --- | --- | --- | --- | --- | --- | --- |
| Cc1ccc(COCC(F)(F)F)c(N2C(=O)CS/C2=N\C(=O)Nc2ccc(-c3ncn(-c4ccnc(OCC(F)(F)F)c4)n3)cc2F)c1 [Compound J750, (Z)-1-(2-Fluoro-4-(1-(2-(2,2,2-trifluoroethoxy)pyridin-4-yl)-1H-1,2,4-triazol-3-yl)phenyl)-3-(3-(5-methyl-2-((2,2,2-trifluoroethoxy)methyl)phenyl)-4-oxothiazolidin-2-ylidene)urea] | 50 to 100% | 50 to 100% | A (80-100) |  |  |  |  |  |
| Cc1ccc(Cc2ccc(F)cc2)c(N2C(=O)CS/C2=N\C(=O)Nc2ccc(-c3ncn(-c4ccc(C(F)(F)F)cc4)n3)cc2F)c1 [Compound J673, (Z)-1-(2-Fluoro-4-(1-(4-(trifluoromethyl)phenyl)-1H-1,2,4-triazol-3-yl)phenyl)-3-(3-(2-(4-fluorobenzyl)-5-methylphenyl)-4-oxothiazolidin-2-ylidene)urea] | 50 to 100% | 50 to 100% | A (80-100) |  |  |  |  |  |
| Cc1cc(N2C(=O)CS/C2=N\C(=O)Nc2ccc(-c3ncn(-c4ccc(OC(F)(F)F)cc4)n3)cc2F)c(C)cc1F [Compound J714, (Z)-1-(3-(4-Fluoro-2,5-dimethylphenyl)-4-oxothiazolidin-2-ylidene)-3-(2-fluoro-4-(1-(4-(trifluoromethoxy)phenyl)-1H-1,2,4-triazol-3-yl)phenyl)urea] | 50 to 100% | 50 to 100% | A (80-100) |  |  |  |  |  |
| O=C(/N=C1\SCC(=O)N1c1cc(Cl)ccc1COCc1ccccc1)Nc1ccc(-c2ncn(-c3ccc(OC(F)(F)F)cc3)n2)cc1F [Compound J719, (Z)-1-(3-(2-((Benzyloxy)methyl)-5-chlorophenyl)-4-oxothiazolidin-2-ylidene)-3-(2-fluoro-4-(1-(4-(trifluoromethoxy)phenyl)-1H-1,2,4-triazol-3-yl)phenyl)urea] | 50 to 100% | 50 to 100% | A (80-100) | 0 to 80% |  |  |  |  |
| Cc1ccc(COCc2ccccc2Cl)c(N2C(=O)CS/C2=N\C(=O)Nc2ccc(-c3ncn(-c4ccc(OC(F)(F)F)cc4)n3)cc2F)c1 [Compound J572, (Z)-1-(3-(2-(((2-Chlorobenzyl)oxy)methyl)-5-methylphenyl)-4-oxothiazolidin-2-ylidene)-3-(2-fluoro-4-(1-(4-(trifluoromethoxy)phenyl)-1H-1,2,4-triazol-3-yl)phenyl)urea] | 50 to 100% | 50 to 100% | A (80-100) |  |  |  |  |  |
| Cc1ccc(Cc2ccccc2F)c(N2C(=O)CS/C2=N\C(=O)Nc2ccc(-c3ncn(-c4ccc(C(F)(F)F)cc4)n3)cc2F)c1 [Compound J708, (Z)-1-(2-Fluoro-4-(1-(4-(trifluoromethyl)phenyl)-1H-1,2,4-triazol-3-yl)phenyl)-3-(3-(2-(2-fluorobenzyl)-5-methylphenyl)-4-oxothiazolidin-2-ylidene)urea] | 50 to 100% | 50 to 100% | A (80-100) |  |  |  |  |  |
| O=C(/N=C1\SCC(=O)N1c1ccccc1-c1ccccc1)Nc1ccc(-c2ncn(-c3ccc(OC(F)(F)F)cc3)n2)cc1F [Compound J720, (Z)-1-(3-([1,1′-Biphenyl]-2-yl)-4-oxothiazolidin-2-ylidene)-3-(2-fluoro-4-(1-(4-(trifluoromethoxy)phenyl)-1H-1,2,4-triazol-3-yl)phenyl)urea] | 50 to 100% | 50 to 100% | A (80-100) |  |  |  |  |  |
| Cc1ccc(C(F)(F)F)c(N2C(=O)CS/C2=N\C(=O)N[C@H](C)Cc2ccc(-c3ncn(-c4ccc(OC(F)(F)F)cc4)n3)cc2)c1 [Compound H3] |  |  |  |  | 50 to 100% | 50 to 100% | 80 to 100% | A (80-100) |
| Cc1ccc(COCc2ccccc2OC(F)(F)F)c(N2C(=O)CS/C2=N\C(=O)Nc2ccc(-c3ncn(-c4ccc(C(F)(F)F)cc4)n3)cc2F)c1 [Compound J746, (Z)-1-(2-Fluoro-4-(1-(4-(trifluoromethyl)phenyl)-1H-1,2,4-triazol-3-yl)phenyl)-3-(3-(5-methyl-2-(((2-(trifluoromethoxy)benzyl)oxy)methyl)phenyl)-4-oxothiazolidin-2-ylidene)urea] |  | 50 to 100% | A (80-100) |  |  |  |  |  |
| Cc1cc(-c2ncn(-c3ccc(OC(F)(F)F)cc3)n2)ccc1NC(=O)/N=C1\SCC(=O)N1c1ccccc1COCC(F)(F)F [Compound J653, (Z)-1-(2-Methyl-4-(1-(4-(trifluoromethoxy)phenyl)-1H-1,2,4-triazol-3-yl)phenyl)-3-(4-oxo-3-(2-((2,2,2-trifluoroethoxy)methyl)phenyl)thiazolidin-2-ylidene)urea] | 50 to 100% | 50 to 100% | A (80-100) | 0 to 80% |  |  |  |  |
| O=C(/N=C1\SCC(=O)N1c1ccccc1COCc1ccccc1)Nc1ccc(-c2ncn(-c3ccc(OC(F)(F)F)cc3)n2)cc1F [Compound J742, (Z)-1-(3-(2-((Benzyloxy)methyl)phenyl)-4-oxothiazolidin-2-ylidene)-3-(2-fluoro-4-(1-(4-(trifluoromethoxy)phenyl)-1H-1,2,4-triazol-3-yl)phenyl)urea] | 50 to 100% | 50 to 100% | A (80-100) | 0 to 80% |  |  |  |  |
| Cc1ccc(Cc2cccc(F)c2)c(N2C(=O)CS/C2=N\C(=O)Nc2ccc(-c3ncn(-c4ccc(C(F)(F)F)cc4)n3)cc2F)c1 [Compound J675, (Z)-1-(2-Fluoro-4-(1-(4-(trifluoromethyl)phenyl)-1H-1,2,4-triazol-3-yl)phenyl)-3-(3-(2-(3-fluorobenzyl)-5-methylphenyl)-4-oxothiazolidin-2-ylidene)urea] | 50 to 100% | 50 to 100% | A (80-100) |  |  |  |  |  |
| CC(F)(F)c1ccccc1N1C(=O)CS/C1=N\C(=O)NCCc1ccc(-c2ncn(-c3ccc(OC(F)(F)F)cc3)n2)cc1 [Compound H21] |  |  |  |  | 50 to 100% | 50 to 100% | 0 to 80% | A (80-100) |
| Cc1ccc([N+](=O)[O-])c(N2C(=O)CS/C2=N\C(=O)Nc2ccc(-c3ncn(-c4ccc(OC(F)(F)F)cc4)n3)cc2)c1 [Compound J313, (Z)-1-(3-(5-Methyl-2-nitrophenyl)-4-oxothiazolidin-2-ylidene)-3-(4-(1-(4-(trifluoromethoxy)phenyl)-1H-1,2,4-triazol-3-yl)phenyl)urea] |  |  |  |  | 50 to 100% | 50 to 100% |  | B (More than 0-Less than 80) |
| Cc1ccc(COCc2cc3c(C(F)(F)F)nn(C)c3s2)c(N2C(=O)CS/C2=N\C(=O)Nc2ccc(-c3ncn(-c4ccc(OC(F)(F)F)cc4)n3)cc2F)c1 [Compound J712, (Z)-1-(2-Fluoro-4-(1-(4-(trifluoromethoxy)phenyl)-1H-1,2,4-triazol-3-yl)phenyl)-3-(3-(5-methyl-2-(((1-methyl-3-(trifluoromethyl)-1H-thieno[2,3-c]pyrazol-5-yl)methoxy)methyl)phenyl)-4-oxothiazolidin-2-ylidene)urea] | 50 to 100% | 50 to 100% | A (80-100) |  |  |  |  |  |

Reference: US20230077362A1 (CORTEVA AGRISCIENCE LLC, priority 2019, published 2023)
